The record followed here is patent EP0231622B1, “Inhibition of the 5-lipoxygenase pathway” (priority 1985, dated 1987).

One experiment deals with T1, 5-Lipoxygenase (Rattus norvegicus, UniProt P12527).
T1 construct: The activities of these enzymes in extracts of RBL-1 cells were assayed; host or cells: RBL-1 cells, disrupted by nitrogen cavitation; 10,000 x g or 100,000 x g supernatant
T1 sequence (P12527 1-673): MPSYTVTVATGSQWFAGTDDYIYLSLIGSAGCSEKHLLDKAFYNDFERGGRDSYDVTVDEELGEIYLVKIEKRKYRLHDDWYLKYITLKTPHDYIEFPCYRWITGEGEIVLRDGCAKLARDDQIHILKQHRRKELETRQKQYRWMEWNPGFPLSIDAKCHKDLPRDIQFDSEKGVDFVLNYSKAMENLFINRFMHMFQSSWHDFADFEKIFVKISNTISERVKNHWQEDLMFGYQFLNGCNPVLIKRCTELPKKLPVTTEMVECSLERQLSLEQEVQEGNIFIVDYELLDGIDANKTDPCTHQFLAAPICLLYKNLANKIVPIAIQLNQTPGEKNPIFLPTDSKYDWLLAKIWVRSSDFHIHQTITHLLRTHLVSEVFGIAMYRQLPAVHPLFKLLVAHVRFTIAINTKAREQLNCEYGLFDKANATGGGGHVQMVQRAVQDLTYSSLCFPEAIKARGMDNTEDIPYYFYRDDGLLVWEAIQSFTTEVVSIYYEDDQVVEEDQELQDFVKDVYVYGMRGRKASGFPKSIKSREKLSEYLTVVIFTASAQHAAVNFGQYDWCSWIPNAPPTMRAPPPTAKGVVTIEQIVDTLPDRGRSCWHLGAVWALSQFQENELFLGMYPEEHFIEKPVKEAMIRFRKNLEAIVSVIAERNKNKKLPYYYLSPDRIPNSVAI
The experiment is described as follows: 5-HETE production by RBL-1 high speed supernatant. It counts as biochemical. Conditions: for IC50: Table 8A, RBL-1 high speed supernatant. As for the experimental part: (§1) For in vitro experiments, compounds were dissolved at appropriate concentrations in ethanol or DMSO (dimethylsulfoxide) (final concentration <1.0%) and then diluted to final concentrations using the buffers indicated in the text.
(§2) The activities of these enzymes in extracts of RBL-1 cells were assayed using the method of Jakschik and Lee, Nature, 287, 51-52 (1980). RBL-1 cells were obtained from the American Type Culture Collection (#CRL 1378) and were grown at 37°C (5% CO₂ in air) in spinner culture in MEM supplemented with 10% heat inactivated fetal calf serum. Harvested cells were washed with 50 mM sodium phosphate buffer, pH 7.0, containing 1 mM EDTA and 0.1% gelatin, resuspended in fresh buffer (5 x 10⁷ cells/ml) and disrupted by nitrogen cavitation using the Parr bomb at 750 psi for 10 min. The broken cell extract was then centrifuged at 10,000 x g for 20 minutes and the supernatant centrifuged at 100,000 x g for 60 minutes. Aliquots (0.25 mls) of the supernatant were preincubated with or without drugs for 10 min, after which 10 ul CaCl₂ (50 mM) was added and the reaction was initiated with 2.5 ul of 2.5 mM arachidonic acid-1-¹⁴C (final concentration was […]; specific activity 20,000 dpm/nmole). After incubation for 3 min at 37°C, the reaction was terminated by addition of 2 volumes (0.5 ml) ice cold acetone and the sample was allowed to deproteinize on ice for 10 min prior to centrifugation at 1,000 x g for 10 min. The deproteinized supernatant was adjusted to pH 3.5 with 2N formic acid and extracted with 2 volumes of ice cold ethyl acetate. The extracted samples were dried under argon, redissolved in ethyl acetate and applied to Whatman LK5D thin layer chromatography (TLC) plates which were developed using the A-9 solvent system [organic phase of ethyl acetate: 2,2,5-trimethylpentane:acetic acid: water (110:50:20:10)] described by Hamberg and Samuelsson, J. Biol. Chem., 241, 257-263 (1966). Arachidonic acid, 5-HETE, di-HETE and PGD₂ were quantified with a Berthold LB 2832 autoscanner.
(§3) The 5-lipoxygenase and LTA₄ synthetase activities were further studied under the following conditions. An additional centrifugation of the RBL-1 supernatant was run at 100,000 x g for 60 min, to remove the particulate cyclooxygenase activity. Sample incubation was done under conditions similar to those described above, i.e., 2 mM CaCl₂ and 25 uM arachidonic acid-1-¹⁴C, however, with an incubation time of 5 min at […]. Under these conditions, only the 5-lipoxygenase pathway metabolites were detectable. The 5-HETE and di-HETEs were formed at a linear rate, and […] amounts of the arachidonic acid-1-¹⁴C substrate were utilized.

The next experiment concerns the target T2, 5-LO (Rattus norvegicus, UniProt P12527).
T2 construct: The activities of these enzymes in extracts of RBL-1 cells were assayed; host or cells: RBL-1 cells, disrupted by nitrogen cavitation; 10,000 x g or 100,000 x g supernatant
T2 sequence (P12527 1-673): T1 sequence (P12527 1-673)
The experiment is described as follows: di-HETE production by RBL-1 high speed supernatant. It counts as biochemical. Conditions: Table 9A; di-HETE production by RBL-1 high speed supernatant; read-out: 5-LO IC50. As to the method: as §1, §2, §3

Broadly, the IC50 is the concentration that gives 50% inhibition. One may read the inhibition as the change of the read-out against control, counted positive when it falls.

Bounds are passed on as bounds.

In the case of `O=S1(=O)CCn2c1nc(-c1ccc(F)cc1)c2-c1ccncc1` [Compound 29, 6-(4-fluorophenyl)-5-(4-pyridyl)-2,3-dihydroimidazo[2,1b]thiazole-1,1-dioxide], the results for the half-maximal inhibitory concentration (IC50) against 5-Lipoxygenase and on 5-LO were 100 µM and above 100 µM, respectively.

Consider `[O-][S+]1CCn2c1nc(-c1ccc(F)cc1)c2-c1ccc(F)cc1` (centres unmarked) [Compound 30], for which the IC50 against 5-Lipoxygenase is 70 µM; on 5-LO it was 60 µM.

With `c1cc(N2CCCC2)ccc1-c1nc2n(c1-c1ccc(N3CCCC3)cc1)CCS2` [Compound 3, 5,6-bis(4-(1-pyrrolidinyl)phenyl)-2,3-dihydroimidazo[2,1-b] thiazole], the concentration for half-maximal inhibition (IC50) on 5-Lipoxygenase turned out to be 0.23 µM; at 5-LO it was 0.1 µM.

Regarding `CCCNc1ccc(-c2nc3n(c2-c2ccncc2)CCS3)cc1` [Compound 2, 6-(4-(1-Propylamino)phenyl)-5-(4-pyridyl)-2,3-dihydroimidazo[2,1-b]thiazole], the results for the concentration for half-maximal inhibition (IC50) against 5-Lipoxygenase and on 5-LO were 12 µM and 7 µM, respectively.

On to `FC(F)(F)c1ccc(-c2nc3n(c2-c2ccc(C(F)(F)F)cc2)CCS3)cc1` [Compound 15], for which the IC50 against 5-Lipoxygenase and on 5-LO was 10 µM throughout.

With `Fc1ccc(-c2nc3n(c2-c2ccccn2)CCS3)cc1` [Compound 23, 5-(2-pyridinyl)-6-(4-fluorophenyl)-2,3-dihydroimidazo[2,1-b]thiazole], the IC50 on 5-Lipoxygenase amounted to 90 µM; on 5-LO it was 42 µM.

For the compound `Fc1ccc(-c2c(-c3ccccn3)nc3n2CCS3)cc1` [Compound 24, 5-(4-fluorophenyl)-6-(2-pyridinyl)-2,3-dihydroimidazo[2,1-b]thiazole], the IC50 came out at 37 µM on 5-Lipoxygenase and 20 µM at 5-LO.

`COc1ccc(-c2nc3n(c2-c2ccc(F)cc2)CCS3)cc1` [Compound 14]: the IC50 at 5-Lipoxygenase is 2 µM; at 5-LO, 0.6 µM.

Take `c1cc(N2CCCCC2)ccc1-c1nc2n(c1-c1ccc(N3CCCCC3)cc1)CCS2` [Compound 4, 5,6-bis(4-(1-piperidinyl)phenyl)-2,3-dihydroimidazo[2,1-b] thiazole]: the concentration for half-maximal inhibition (IC50) on 5-Lipoxygenase worked out at 1.2 µM; at 5-LO, 0.6 µM.

Take `c1cc(-c2c(-c3ccc4c(c3)OCO4)nc3n2CCS3)ccn1` [Compound 5, 5-(4-pyridyl)-6-(3,4-methylenedioxyphenyl)-2,3-dihydroimidazo[2,1-b]thiazole]: the IC50 against 5-Lipoxygenase and on 5-LO was 10 µM throughout.

Consider `c1cc(-c2nc3n(c2-c2ccc4c(c2)OCO4)CCS3)ccn1` [Compound 7, 6-(4-pyridyl)-5-(3,4-methylenedioxyphenyl)-2,3-dihydroimidazo[2,1-b]thiazole], for which the IC50 against 5-Lipoxygenase and on 5-LO was 10 µM in each case.

Take `Fc1ccc(-c2c(-c3ccncc3)nc3n2CCS3)cc1` [Compound 12]: the IC50 worked out at 16 µM at 5-Lipoxygenase and 17 µM at 5-LO.

Take `[O-][S+]1CCn2c1nc(-c1ccc(F)cc1)c2-c1ccncc1` (centres unmarked) [Compound 28, 6-(4-fluorophenyl)-5-(4-pyridyl)-2,3-dihydroimadazo-[2,1-b]thiazole-1-oxide]: the 50% inhibitory concentration (IC50) against 5-Lipoxygenase and on 5-LO was 1000 µM throughout.

In the case of `Fc1ccc(-c2nc3n(c2-c2ccc(F)cc2)CCC3)cc1` [Compound 8, 2,3-Bis(4-fluorophenyl)-6,7-dihydro-5H-pyrrolo[1,2-a]imidazole], the values for the IC50 at 5-Lipoxygenase and at 5-LO were 12 µM and 8 µM, respectively.

Consider `COc1ccc(-c2nc3n(c2-c2ccc(OC)cc2)CCCS3)cc1` [Compound 20], for which the 50% inhibitory concentration (IC50) on 5-Lipoxygenase and at 5-LO was 5.6 µM each time.

Regarding `COc1ccc(-c2nc3n(c2-c2ccc(OC)cc2)CCS3)cc1` [Compound 21], the IC50 at 5-Lipoxygenase is 3.9 µM; on 5-LO it was 2.8 µM.

Turning to `c1cc(-c2c(-c3ccc(N4CCCC4)cc3)nc3n2CCS3)ccn1` [Compound 25, 5-(4-pyridyl)-6-(4-(pyrrolidin-1-yl)phenyl)-2,3-dihydroimidazo[2,1-b]thiazole], the IC50 at 5-Lipoxygenase and on 5-LO was 0.5 µM each time.

On to `N#Cc1ccc(-c2nc3n(c2-c2ccc(C#N)cc2)CCS3)cc1` [Compound 13, 5,6-bis(4-cyanophenyl)-2,3-dihydroimidazo[2,1-b]thiazole], for which the IC50 was 16 µM against 5-Lipoxygenase and 15 µM on 5-LO.

Turning to `CN(C)c1ccc(-c2nc3n(c2-c2ccc(F)cc2)CCS3)cc1` [Compound 6, 6-(4-N,N-dimethylaminophenyl)-5-(4-fluorophenyl)-2,3-dihydroimidazo[2,1-b]thiazole], the concentration for half-maximal inhibition (IC50) against 5-Lipoxygenase was found to be 0.8 µM; on 5-LO it was 0.6 µM.

With `CC(=O)Nc1ccc(-c2nc3n(c2-c2ccncc2)CCS3)cc1` [Compound 38, 5-(4-pyridyl)-6-(4-acetamidophenyl)-2,3-dihydroimidazo [(2,1-b)]thiazole], the IC50 is 69 µM against 5-Lipoxygenase and 30 µM on 5-LO.

As to `Nc1ccc(-c2nc3n(c2-c2ccc(N)cc2)CCS3)cc1` [Compound 45, 5,6-bis(4-aminophenyl)-2,3-dihydroimidazo[2,1-b]thiazole], the figures for the concentration for half-maximal inhibition (IC50) at 5-Lipoxygenase and on 5-LO were 8 µM and 6 µM, respectively.

`COc1ccc(-c2nc3n(c2-c2ccc(OC)cc2)CCS3(=O)=O)cc1` [Compound 43]: the concentration for half-maximal inhibition (IC50) against 5-Lipoxygenase and on 5-LO was 10 µM each time.

For `CSc1ccc(-c2nc3n(c2-c2ccc(SC)cc2)CCS3)cc1` [Compound 32], the IC50 was above 10 µM at 5-Lipoxygenase and above 100 µM at 5-LO. Moreover, on 5-Lipoxygenase (read-out: % inhibition at 10 μM, 10 μM, 5-HETE production, footnotes of Table 8A), the inhibition at 10 µM lay within 35 to 40%.

Regarding `COc1ccc(-c2nc3n(c2-c2ccc(OC)cc2)CCC3)cc1` [Compound 22], the midpoint of inhibition on 5-Lipoxygenase, the IC50, lay at 4 µM.

Take `Fc1ccc(-c2nc3n(c2-c2ccc(F)cc2)CCS3)cc1` [Compound 19]: the results for the IC50 on 5-Lipoxygenase and on 5-LO were 8.6 µM and 5 µM, respectively.

Turning to `c1cc2c(cc1-c1nc3n(c1-c1ccc4c(c1)OCO4)CCS3)OCO2` [Compound 16], the values for the IC50 on 5-Lipoxygenase and on 5-LO were 3.8 µM and 1.5 µM, respectively.

On to `CCNc1ccc(-c2nc3n(c2-c2ccc(NCC)cc2)CCS3)cc1` [Compound 17], for which the concentration for half-maximal inhibition (IC50) at 5-Lipoxygenase and on 5-LO was 0.1 µM each time.

Take `COc1ccc(-c2nc3n(c2-c2ccncc2)CCS3)cc1` [Compound 18]: the IC50 at 5-Lipoxygenase worked out at 5.4 µM; at 5-LO, 1.9 µM.

`c1cc(-c2nc3n(c2-c2ccncc2)CCS3)ccn1` [Compound 11, 5,6-Bis(4-pyridyl)-2,3-dihydroimidazo(2,1-b)thiazole]: the half-inhibitory concentration (IC50) against 5-Lipoxygenase was determined as 110 µM; on 5-LO it was 33 µM.

Turning to `CCN(CC)c1ccc(-c2nc3n(c2-c2ccc(N(CC)CC)cc2)CCS3)cc1` [Compound 9, 5,6-bis(4-N,N-diethylaminophenyl)-2,3-dihydroimidazo [2,1-b]thiazole], the IC50 at 5-Lipoxygenase came out at 0.35 µM; at 5-LO it was 0.16 µM.

On to `O=S1(=O)CCn2c1nc(-c1ccc(F)cc1)c2-c1ccc(F)cc1` [Compound 31], for which the 50% inhibitory concentration (IC50) was 33 µM against 5-Lipoxygenase and below 33 µM on 5-LO.
